According to US8247211B2, “Glycopeptide antibiotics” (American Cyanamid Company, priority 2001, dated 2012):
Converted amounts (≈) assume the structure as drawn.

Experiments:
Test in all cases: In vitro antibacterial evaluation: minimum inhibitory concentration (MIC), broth dilution method
Type in all cases: cell-based
Escherichia coli = details: 18 hours at 35° C.
Outline: (§1)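 Following NCCLS approved standard M7-A2, compounds are serially diluted from 64 to 0.06 μg/mL in Muller-Hinton II […] and inoculated at 5×10^5 CFU/mL; the MIC is the minimum concentration at which growth is inhibited.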

Streptococcus sp. = details: 18 hours at 35° C.
Outline: as §1

Staphylococcus sp. = system: Staphylococcus sp.
Outline: as §1

Enterococcus sp. = details: 18 hours at 35° C.
Outline: as §1

[1] = Streptococcus agalactiae (GC 4564)
[2] = Streptococcus pneumoniae (ATCC 6301)
[3] = Streptococcus pneumoniae (GC 1894)
[4] = Streptococcus pneumoniae (GC 4565)
[5] = Streptococcus pyogenes (GC 4563)
[6] = broth dilution, inoculum 5×10^5 CFU/mL
[7] = Enterococcus faecalis (ATCC 29212)
[8] = Enterococcus faecalis (GC 2242)
[9] = Enterococcus faecalis (GC 2691)
[10] = Enterococcus faecalis (GC 3059)
[11] = Enterococcus faecalis (GC 4552)
[12] = Enterococcus faecalis (GC 4553)
[13] = Enterococcus faecalis (GC 4554)
[14] = Enterococcus faecalis (GC 6189)

## CC(C)=CCN1CC(C(O)C2NC(=O)C(C(O)C3CNC(=N)N3)NC(=O)C(Cc3ccc(OC4OC(CO)C(OC5OC6COC7(OC6C(O)C5O)C5CC6CC(C5)CC7C6)C(O)C4O)cc3)NC(=O)C(C(C)c3ccccc3)NC(=O)CNC(=O)C(CO)NC2=O)N(C2OC(CO)C(O)C(O)C2O)C1=N (stereo not drawn) [Example 225, Cyclo[glycyl-β-methylphenylalanyl-O-[4-O-[4,6-O-(2-adamantylidene)hexopyranosyl]hexopyranosyl]tyrosyl-3-(2-iminoimidazolidin-4-yl)seryl-3,3-hexopyranosyl-2-imino-1-(3-methylbut-2-en-1-iminoimidazolidin-4-yl]serylseryl]]
Escherichia coli
  MIC Escherichia coli (GC 4560): 4 mg/L (≈ 2.67 µM)
Streptococcus sp.; [1]
  MIC Streptococcus agalactiae (GC 4564): 0.5 mg/L (≈ 0.334 µM)
Streptococcus sp.; [2]
  MIC Streptococcus pneumoniae (ATCC 6301): 0.5 mg/L (≈ 0.334 µM)
Streptococcus sp.; [3]
  MIC Streptococcus pneumoniae (GC 1894): <0.12 mg/L
Streptococcus sp.; [4]
  MIC Streptococcus pneumoniae (GC 4565): 1 mg/L (≈ 0.669 µM)
Streptococcus sp.; [5]
  MIC Streptococcus pyogenes (GC 4563): 0.5 mg/L (≈ 0.334 µM)
Streptococcus sp.; [6]
  MIC Streptococcus agalactiae (GC 4564): 0.5 mg/L (≈ 0.334 µM)
  MIC Streptococcus pneumoniae (ATCC 6301): 0.5 mg/L (≈ 0.334 µM)
  MIC Streptococcus pneumoniae (GC 1894): <0.12 mg/L
  MIC Streptococcus pneumoniae (GC 4565): 1 mg/L (≈ 0.669 µM)
  MIC Streptococcus pyogenes (GC 4563): 0.5 mg/L (≈ 0.334 µM)
Staphylococcus sp.; strain ATCC 29213
  MIC Staphylococcus aureus (ATCC 29213): 4 mg/L (≈ 2.67 µM)
Staphylococcus sp.; strain GC 1131
  MIC Staphylococcus aureus (GC 1131): 8 mg/L (≈ 5.35 µM)
Staphylococcus sp.; strain GC 3051
  MIC Staphylococcus aureus (GC 3051): 4 mg/L (≈ 2.67 µM)
Staphylococcus sp.; strain GC 3053
  MIC Staphylococcus aureus (GC 3053): 8 mg/L (≈ 5.35 µM)
Staphylococcus sp.; strain GC 4541
  MIC Staphylococcus aureus (GC 4541): 4 mg/L (≈ 2.67 µM)
Staphylococcus sp.; strain GC 4542
  MIC Staphylococcus aureus (GC 4542): 8 mg/L (≈ 5.35 µM)
Staphylococcus sp.; strain GC 4543
  MIC Staphylococcus aureus-SMITH (GC 4543): 4 mg/L (≈ 2.67 µM)
Staphylococcus sp.; strain GC 4544
  MIC Staphylococcus aureus (GC 4544): 8 mg/L (≈ 5.35 µM)
Staphylococcus sp.; strain GC 4545
  MIC Staphylococcus aureus (GC 4545): 4 mg/L (≈ 2.67 µM)
Staphylococcus sp.; strain GC 4546
  MIC Staphylococcus haemolyticus (GC 4546): 4 mg/L (≈ 2.67 µM)
Staphylococcus sp.; strain GC 4547
  MIC Coagulase Negative Staphylococcus (GC 4547): 4 mg/L (≈ 2.67 µM)
Staphylococcus sp.; strain GC 4548
  MIC Coagulase Negative Staphylococcus (GC 4548): 2 mg/L (≈ 1.34 µM)
Staphylococcus sp.; strain GC 4549
  MIC Coagulase Negative Staphylococcus (GC 4549): 2 mg/L (≈ 1.34 µM)
Staphylococcus sp.; strain GC 4551
  MIC Coagulase Negative Staphylococcus (GC 4551): 4 mg/L (≈ 2.67 µM)
Enterococcus sp.; Enterococcus avium (GC 4558)
  MIC Enterococcus avium (GC 4558): 4 mg/L (≈ 2.67 µM)
Enterococcus sp.; [7]
  MIC Enterococcus faecalis (ATCC 29212): 8 mg/L (≈ 5.35 µM)
Enterococcus sp.; [8]
  MIC Enterococcus faecalis (GC 2242): 8 mg/L (≈ 5.35 µM)
Enterococcus sp.; [9]
  MIC Enterococcus faecalis (GC 2691): 16 mg/L (≈ 10.7 µM)
Enterococcus sp.; [10]
  MIC Enterococcus faecalis (GC 3059): 16 mg/L (≈ 10.7 µM)
Enterococcus sp.; [11]
  MIC Enterococcus faecalis (GC 4552): 8 mg/L (≈ 5.35 µM)
Enterococcus sp.; [12]
  MIC Enterococcus faecalis (GC 4553): 4 mg/L (≈ 2.67 µM)
Enterococcus sp.; [13]
  MIC Enterococcus faecalis (GC 4554): 16 mg/L (≈ 10.7 µM)
Enterococcus sp.; [14]
  MIC Enterococcus faecalis (GC 6189): 16 mg/L (≈ 10.7 µM)
Enterococcus sp.; Enterococcus faecium (GC 2243)
  MIC Enterococcus faecium (GC 2243): 4 mg/L (≈ 2.67 µM)
Enterococcus sp.; Enterococcus faecium (GC 4556)
  MIC Enterococcus faecium (GC 4556): 8 mg/L (≈ 5.35 µM)
Enterococcus sp.; Enterococcus faecium (GC 4557)
  MIC Enterococcus faecium (GC 4557): 1 mg/L (≈ 0.669 µM)
Enterococcus sp.; [6]
  MIC Enterococcus avium (GC 4558): 4 mg/L (≈ 2.67 µM)
  MIC Enterococcus faecalis (ATCC 29212): 8 mg/L (≈ 5.35 µM)
  MIC Enterococcus faecalis (GC 2242): 8 mg/L (≈ 5.35 µM)
  MIC Enterococcus faecalis (GC 2691): 16 mg/L (≈ 10.7 µM)
  MIC Enterococcus faecalis (GC 3059): 16 mg/L (≈ 10.7 µM)
  MIC Enterococcus faecalis (GC 4552): 8 mg/L (≈ 5.35 µM)
  MIC Enterococcus faecalis (GC 4553): 4 mg/L (≈ 2.67 µM)
  MIC Enterococcus faecalis (GC 4554): 16 mg/L (≈ 10.7 µM)
  MIC Enterococcus faecalis (GC 6189): 16 mg/L (≈ 10.7 µM)
  MIC Enterococcus faecium (GC 2243): 4 mg/L (≈ 2.67 µM)
  MIC Enterococcus faecium (GC 4556): 8 mg/L (≈ 5.35 µM)
  MIC Enterococcus faecium (GC 4557): 1 mg/L (≈ 0.669 µM)

## CC(c1ccccc1)C1NC(=O)CNC(=O)C(CO)NC(=O)C(CC2CNC(=N)N2C2OC(CO)C(O)C(O)C2O)NC(=O)C(CC2CNC(=N)N2)NC(=O)C(Cc2ccc(OC3OC(CO)C(OC4OC(COCc5ccc(OCc6ccccc6)cc5)C(O)C(O)C4O)C(O)C3O)cc2)NC1=O (stereo not drawn) [Example 246, Cyclo[3-(2-iminoimidazolidin-4-yl)alanyl-3-(3-hexopyranosyl-2-iminoimidazolidin-4-yl)-alanylserylglycyl-β-methylphenylalanyl-O-[4-O-[6-O-[4-(phenylmethoxy)benzyl]hexopyranosyl]hexopyranosyl]tyrosyl]]
Escherichia coli; Escherichia coli (GC 4559)
  MIC Escherichia coli (GC 4559): 64 mg/L (≈ 43.8 µM)
Escherichia coli
  MIC Escherichia coli (GC 4560): 4 mg/L (≈ 2.74 µM)
Streptococcus sp.; [1]
  MIC Streptococcus agalactiae (GC 4564): 2 mg/L (≈ 1.37 µM)
Streptococcus sp.; [2]
  MIC Streptococcus pneumoniae (ATCC 6301): 2 mg/L (≈ 1.37 µM)
Streptococcus sp.; [3]
  MIC Streptococcus pneumoniae (GC 1894): 0.5 mg/L (≈ 0.343 µM)
Streptococcus sp.; [4]
  MIC Streptococcus pneumoniae (GC 4565): 2 mg/L (≈ 1.37 µM)
Streptococcus sp.; [5]
  MIC Streptococcus pyogenes (GC 4563): 4 mg/L (≈ 2.74 µM)
Streptococcus sp.; [6]
  MIC Streptococcus agalactiae (GC 4564): 2 mg/L (≈ 1.37 µM)
  MIC Streptococcus pneumoniae (ATCC 6301): 2 mg/L (≈ 1.37 µM)
  MIC Streptococcus pneumoniae (GC 1894): 0.5 mg/L (≈ 0.343 µM)
  MIC Streptococcus pneumoniae (GC 4565): 2 mg/L (≈ 1.37 µM)
  MIC Streptococcus pyogenes (GC 4563): 4 mg/L (≈ 2.74 µM)
Staphylococcus sp.; Coagulase Negative Staphylococcus (GC 4547), 18 hours at 35° C.
  MIC Coagulase Negative Staphylococcus (GC 4547): 4 mg/L (≈ 2.74 µM)
Staphylococcus sp.; Coagulase Negative Staphylococcus (GC 4548), 18 hours at 35° C.
  MIC Coagulase Negative Staphylococcus (GC 4548): 4 mg/L (≈ 2.74 µM)
Staphylococcus sp.; Coagulase Negative Staphylococcus (GC 4549), 18 hours at 35° C.
  MIC Coagulase Negative Staphylococcus (GC 4549): 4 mg/L (≈ 2.74 µM)
Staphylococcus sp.; Coagulase Negative Staphylococcus (GC 4551), 18 hours at 35° C.
  MIC Coagulase Negative Staphylococcus (GC 4551): 8 mg/L (≈ 5.48 µM)
Staphylococcus sp.; Coagulase Negative Staphylococcus (GC 6257), 18 hours at 35° C.
  MIC Coagulase Negative Staphylococcus (GC 6257): 2 mg/L (≈ 1.37 µM)
Staphylococcus sp.; Staphylococcus aureus (ATCC 29213), 18 hours at 35° C.
  MIC Staphylococcus aureus (ATCC 29213): 4 mg/L (≈ 2.74 µM)
Staphylococcus sp.; Staphylococcus aureus (GC 1131), 18 hours at 35° C.
  MIC Staphylococcus aureus (GC 1131): 8 mg/L (≈ 5.48 µM)
Staphylococcus sp.; Staphylococcus aureus (GC 3051), 18 hours at 35° C.
  MIC Staphylococcus aureus (GC 3051): 4 mg/L (≈ 2.74 µM)
Staphylococcus sp.; Staphylococcus aureus (GC 3053), 18 hours at 35° C.
  MIC Staphylococcus aureus (GC 3053): 4 mg/L (≈ 2.74 µM)
Staphylococcus sp.; Staphylococcus aureus (GC 4541), 18 hours at 35° C.
  MIC Staphylococcus aureus (GC 4541): 4 mg/L (≈ 2.74 µM)
Staphylococcus sp.; Staphylococcus aureus (GC 4542), 18 hours at 35° C.
  MIC Staphylococcus aureus (GC 4542): 4 mg/L (≈ 2.74 µM)
Staphylococcus sp.; Staphylococcus aureus (GC 4544), 18 hours at 35° C.
  MIC Staphylococcus aureus (GC 4544): 8 mg/L (≈ 5.48 µM)
Staphylococcus sp.; Staphylococcus aureus (GC 4545), 18 hours at 35° C.
  MIC Staphylococcus aureus (GC 4545): 4 mg/L (≈ 2.74 µM)
Staphylococcus sp.; Staphylococcus aureus-SMITH (GC 4543), 18 hours at 35° C.
  MIC Staphylococcus aureus-SMITH (GC 4543): 4 mg/L (≈ 2.74 µM)
Staphylococcus sp.; Staphylococcus haemolyticus (GC 4546), 18 hours at 35° C.
  MIC Staphylococcus haemolyticus (GC 4546): 4 mg/L (≈ 2.74 µM)
Enterococcus sp.; Enterococcus avium (GC 4558)
  MIC Enterococcus avium (GC 4558): 8 mg/L (≈ 5.48 µM)
Enterococcus sp.; [7]
  MIC Enterococcus faecalis (ATCC 29212): 16 mg/L (≈ 11 µM)
Enterococcus sp.; [8]
  MIC Enterococcus faecalis (GC 2242): 16 mg/L (≈ 11 µM)
Enterococcus sp.; [9]
  MIC Enterococcus faecalis (GC 2691): 32 mg/L (≈ 21.9 µM)
Enterococcus sp.; [10]
  MIC Enterococcus faecalis (GC 3059): 32 mg/L (≈ 21.9 µM)
Enterococcus sp.; [11]
  MIC Enterococcus faecalis (GC 4552): 16 mg/L (≈ 11 µM)
Enterococcus sp.; [12]
  MIC Enterococcus faecalis (GC 4553): 8 mg/L (≈ 5.48 µM)
Enterococcus sp.; [13]
  MIC Enterococcus faecalis (GC 4554): 32 mg/L (≈ 21.9 µM)
Enterococcus sp.; [14]
  MIC Enterococcus faecalis (GC 6189): 16 mg/L (≈ 11 µM)
Enterococcus sp.; Enterococcus faecium (GC 2243)
  MIC Enterococcus faecium (GC 2243): 16 mg/L (≈ 11 µM)
Enterococcus sp.; Enterococcus faecium (GC 4556)
  MIC Enterococcus faecium (GC 4556): 16 mg/L (≈ 11 µM)
Enterococcus sp.; Enterococcus faecium (GC 4557)
  MIC Enterococcus faecium (GC 4557): 4 mg/L (≈ 2.74 µM)
Enterococcus sp.; [6]
  MIC Enterococcus faecalis (GC 2242): 16 mg/L (≈ 11 µM)
  MIC Enterococcus faecalis (GC 2691): 32 mg/L (≈ 21.9 µM)
  MIC Enterococcus faecalis (GC 3059): 32 mg/L (≈ 21.9 µM)
